How the values were obtained:
[1] = Hydrogel formation (tube inversion) as a function of pH; format: physicochemical; settings: 1 wt % peptide in aqueous NaOH; cloudy gel, does not flow under tube inversion; liquid at the other pH values studied (pH 3-12)
From the text: Peptide […] is able to form a hydrogel under precisely defined conditions. […] The apple-green birefringence of the peptide gel stained with Congo red (Figure 6b) together with TEM images (Figure 6c) reveal that the hydrogel comprises a tight network of 20–50 nm wide peptide nanotapes. The viscoelastic response of the gel was studied by rheology. The linear regime was first identified by strain sweep experiments (Figure S5). The elastic modulus G′ > G′′ (the shear loss modulus) and G′ is weakly dependent on frequency and reaches a value >10^5 Pa at a high frequency (ω = 100 rad s^–1). These are all characteristic rheological signatures of gels, and the high frequency value of G′ is higher than that observed for many peptide hydrogels.[48] The FTIR spectrum shown in Figure 6e is very similar to that discussed for the solutions of 1 wt % […] at pH 4 and 5 and is consistent with a β-sheet secondary structure. The SAXS data was again fitted using a model form factor of Gaussian bilayers (Figure 6f). […]
Peptide […] was supplied by Peptide Synthetics (Peptide Protein Research Limited), Fareham, UK as a TFA salt. The molar mass by electrospray mass spectrometry is 1405.595 g mol^–1 and the purity is >95%, determined by high performance liquid chromatography (HPLC) in a gradient HPLC using an acetonitrile (0.1% TFA)/water (0.1% TFA) gradient with a Kinetex 2.6u XB-C18 100A column. […]

[2] = Rheology of peptide gel (frequency sweep of shear moduli); format: physicochemical; settings: 1 wt % peptide gel at pH 4.4; cone and plate; constant stress 30 Pa; ω = 100 rad s^–1
From the text: Peptide […] is able to form a hydrogel under precisely defined conditions. […] The apple-green birefringence of the peptide gel stained with Congo red (Figure 6b) together with TEM images (Figure 6c) reveal that the hydrogel comprises a tight network of 20–50 nm wide peptide nanotapes. The viscoelastic response of the gel was studied by rheology. The linear regime was first identified by strain sweep experiments (Figure S5). The elastic modulus G′ > G′′ (the shear loss modulus) and G′ is weakly dependent on frequency and reaches a value >10^5 Pa at a high frequency (ω = 100 rad s^–1). These are all characteristic rheological signatures of gels, and the high frequency value of G′ is higher than that observed for many peptide hydrogels.[48] The FTIR spectrum shown in Figure 6e is very similar to that discussed for the solutions of 1 wt % […] at pH 4 and 5 and is consistent with a β-sheet secondary structure. The SAXS data was again fitted using a model form factor of Gaussian bilayers (Figure 6f). The XRD data is characterized by strong diffraction peaks at 10 and 4.7 Å, consistent with an amyloid cross-β diffraction pattern.[12],[49]−[51] The other weaker peaks can also be ascribed to β-sheet features.[49],[52]−[57]
Dynamic shear moduli were measured using a controlled stress AR-2000 rheometer from TA Instruments. […]

RSAIEDLLFDKV
pH at which hydrogel formation is observed [1]: 4.4 pH
shear elastic modulus G′ at high frequency [2]: > 10^5 Pa

From publication PMC8867915, “Amyloid and Hydrogel Formation of a Peptide Sequence from a Coronavirus Spike Protein” (ACS Nano, 2022)
